Laboratory results published in BindingDB's records for PubMed 10411589 (The University of Queensland, 1999).

Assays:
[1] = target: Sodium-dependent noradrenaline transporter (Bos taurus, UniProt P51143)
[2] = target: Norepinephrine transporter (Rattus norvegicus, UniProt Q9JIA2)
[3] = target: Sodium-dependent noradrenaline transporter (Homo sapiens, UniProt P23975)
Sequence of Sodium-dependent noradrenaline transporter (Homo sapiens, UniProt P23975) (P23975 whole entry): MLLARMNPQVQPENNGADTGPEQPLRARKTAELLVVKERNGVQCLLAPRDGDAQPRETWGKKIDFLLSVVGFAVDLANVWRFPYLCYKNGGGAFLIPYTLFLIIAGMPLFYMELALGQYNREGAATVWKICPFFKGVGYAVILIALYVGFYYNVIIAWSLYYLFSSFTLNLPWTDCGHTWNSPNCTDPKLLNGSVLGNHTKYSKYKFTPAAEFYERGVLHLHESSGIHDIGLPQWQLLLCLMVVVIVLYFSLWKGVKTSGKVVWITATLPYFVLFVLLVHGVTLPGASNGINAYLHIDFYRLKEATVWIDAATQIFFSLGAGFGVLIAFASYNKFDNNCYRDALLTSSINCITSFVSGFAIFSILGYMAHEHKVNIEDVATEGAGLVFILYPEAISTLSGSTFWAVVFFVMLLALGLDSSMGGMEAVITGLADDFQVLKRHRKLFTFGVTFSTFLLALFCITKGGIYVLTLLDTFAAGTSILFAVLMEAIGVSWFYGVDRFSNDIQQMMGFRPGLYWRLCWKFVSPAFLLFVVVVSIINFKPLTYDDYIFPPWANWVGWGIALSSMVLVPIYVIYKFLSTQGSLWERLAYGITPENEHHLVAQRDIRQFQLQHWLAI

Sequence of Sodium-dependent noradrenaline transporter (Bos taurus, UniProt P51143) (P51143 whole entry): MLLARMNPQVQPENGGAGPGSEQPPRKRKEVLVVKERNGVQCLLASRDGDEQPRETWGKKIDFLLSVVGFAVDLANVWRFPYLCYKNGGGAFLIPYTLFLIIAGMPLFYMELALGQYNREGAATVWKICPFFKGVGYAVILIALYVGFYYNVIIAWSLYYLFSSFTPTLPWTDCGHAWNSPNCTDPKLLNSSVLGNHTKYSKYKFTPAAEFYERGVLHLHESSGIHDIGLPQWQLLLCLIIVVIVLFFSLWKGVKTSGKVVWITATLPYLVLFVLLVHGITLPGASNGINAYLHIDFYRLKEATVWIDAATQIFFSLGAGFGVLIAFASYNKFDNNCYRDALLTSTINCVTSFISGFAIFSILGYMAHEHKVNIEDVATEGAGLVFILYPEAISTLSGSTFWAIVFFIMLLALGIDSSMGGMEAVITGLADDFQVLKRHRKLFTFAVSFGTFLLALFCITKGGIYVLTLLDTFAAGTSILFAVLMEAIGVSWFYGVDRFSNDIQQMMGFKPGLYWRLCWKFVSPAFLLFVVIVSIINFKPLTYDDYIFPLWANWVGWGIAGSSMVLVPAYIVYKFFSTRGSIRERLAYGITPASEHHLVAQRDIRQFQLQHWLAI

Compound `CN(C)CCCN1c2ccccc2CCc2ccccc21` has a Ki [1] of 93.6 nM.

Compound `NCCc1ccc(O)c(O)c1` has a Ki [1] of 397 nM and a Ki [2] of 392 nM.

For `CNCCC(Oc1ccccc1OC)c1ccccc1` (stereo not given) [3-(2-methoxyphenoxy)-N-methyl-3-phenylpropan-1-amine], the Ki [2] was 5.74 nM.

`CNCC(O)c1ccc(O)c(O)c1` (stereo not given) [EPINEPHRINE] gave a Ki [1] of 5000 nM, a Ki [3] of 3680 nM and a Ki [2] of 6500 nM.

For `C[n+]1ccc(-c2ccccc2)cc1` [NSC_39484], the Ki [1] was 570 nM, the Ki [3] was 507 nM and the Ki [2] was 778 nM.
